Test results: US20250230193A1, “CYCLIC COMPOUND HAVING SELECTIVE KRAS INHIBITORY EFFECT ON HRAS AND NRAS” (CHUGAI SEIYAKU KABUSHIKI KAISHA, priority 2022, published 2025)
Where a SMILES comes first, the peptide text is derived from it. Bridges are numbered along the chain shown (N, C = ends). [ ]: non-standard residue; d: D form. The star is where a group is joined. hPhe(3,5-F2-4-CF3) = N[C@@H](CCc1cc(F)c(C(F)(F)F)c(F)c1)C(=O)O; hPhe(3-Cl-4-CF3) = N[C@@H](CCc1ccc(C(F)(F)F)c(Cl)c1)C(=O)O; NPrPhe(4-CF3) = CCCN[C@@H](Cc1ccc(C(F)(F)F)cc1)C(=O)O; NMePhe(4-Me) = CN[C@@H](Cc1ccc(C)cc1)C(=O)O; Abu(4,4,4-F3) = N[C@@H](CC(F)(F)F)C(=O)O; NMeGly(cPent) = CN[C@H](C(=O)O)C1CCCC1; NMeD = CN[C@@H](CC(=O)O)C(=O)O; NMeL = CN[C@@H](CC(C)C)C(=O)O; αMeV = CC(C)[C@](C)(N)C(=O)O; Morpholide = C1CN(*)CCO1; NMeA = CN[C@@H](C)C(=O)O; Ac5c = NC1(C(=O)O)CCCC1; Aze = O=C(O)[C@@H]1CCN1; NEtG = CCNCC(=O)O; Sar = CNCC(=O)O

What was measured:
[1] = target: GDP-bound NRAS wild-type protein (Homo sapiens, UniProt P01111); assay: Binding to NRAS by surface plasmon resonance (SPR), Single Cycle Kinetics; settings: SPR
Chain of GDP-bound NRAS wild-type protein (P01111 whole entry): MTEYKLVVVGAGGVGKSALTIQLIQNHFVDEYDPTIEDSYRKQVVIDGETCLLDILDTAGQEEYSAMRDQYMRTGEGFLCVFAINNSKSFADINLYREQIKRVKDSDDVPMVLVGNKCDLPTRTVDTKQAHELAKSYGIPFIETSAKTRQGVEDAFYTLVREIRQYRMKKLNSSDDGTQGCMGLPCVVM

[2] = target: GDP-bound HRAS wild-type protein (Homo sapiens, UniProt P01112); assay: Binding to HRAS by surface plasmon resonance (SPR), Single Cycle Kinetics; settings: SPR
Chain of GDP-bound HRAS wild-type protein (P01112 whole entry): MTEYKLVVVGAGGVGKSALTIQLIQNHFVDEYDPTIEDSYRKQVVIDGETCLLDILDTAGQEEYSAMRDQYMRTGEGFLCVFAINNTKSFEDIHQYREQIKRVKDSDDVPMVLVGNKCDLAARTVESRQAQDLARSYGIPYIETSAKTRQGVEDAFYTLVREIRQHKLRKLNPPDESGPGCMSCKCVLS

[3] = KD ratio, GDP-bound NRAS wild-type vs GDP-bound KRAS wild-type
[4] = KD ratio, GDP-bound HRAS wild-type vs GDP-bound KRAS wild-type

CCCN1C(=O)CN(C)C(=O)CN(C)C(=O)[C@H](CC(F)(F)F)NC(=O)[C@H](CC(C)C)N(C)C(=O)C[C@@H](C(=O)N2CCOCC2)N(C)C(=O)[C@H](C2CCCC2)N(C)C(=O)C2(CCCC2)NC(=O)[C@@H]2CCCN2C(=O)[C@H](CCc2ccc(C(F)(F)F)c(Cl)c2)NC(=O)CN(C)C(=O)[C@@H]1Cc1ccc(C(F)(F)F)cc1 [PP0249] ([NMeL][Abu(4,4,4-F3)][Sar][Sar][NPrPhe(4-CF3)][Sar][hPhe(3-Cl-4-CF3)]P[Ac5c][NMeGly(cPent)][NMeD]-Morpholide; lactam N-11)
NRAS/KRAS (ratio of KD for GDP-bound NRAS wild-type to KD for KRAS) [1]: B (a compound having 3 or more and less than 10 is denoted as B)
HRAS/KRAS (ratio of KD for GDP-bound HRAS wild-type to KD for KRAS) [2]: C (A compound having a KD ratio of 0.1 or more and less than 3 is denoted as C)

CC[C@H](C)[C@@H]1NC(=O)[C@H](CC(C)C)N(C)C(=O)C[C@@H](C(=O)N2CCOCC2)N(C)C(=O)[C@H](C2CCCC2)N(C)C(=O)C2(CCC2)NC(=O)[C@@H]2[C@H](O)CCN2C(=O)[C@H](CCc2cc(F)c(C(F)(F)F)c(F)c2)NC(=O)CN(C)C(=O)[C@H](Cc2ccc(C(F)(F)F)cc2)N2CCCCC[C@@H](C2=O)N(C)C(=O)CN(C)C1=O [PP0873]
NRAS/KRAS (ratio of KD value with respect to NRAS to KD value with respect to KRAS) [1, 3]: A (a compound having 10 or more and less than 20 is denoted as A)
HRAS/KRAS (ratio of KD value with respect to HRAS to KD value with respect to KRAS) [2, 4]: B (a compound having 3 or more and less than 10 is denoted as B)

CCOC[C@H]1C(=O)N[C@@H]([C@@H](C)CC)C(=O)N(C)CC(=O)N(C)[C@H]2C/C=C\CCN(C2=O)[C@@H](CC2CCC(F)(F)CC2)C(=O)N(C)CC(=O)N[C@@H](CCc2cc(F)c(C(F)(F)F)c(F)c2)C(=O)N2C[C@@H](C)C[C@H]2C(=O)NC2(CC(C)(C)C2)C(=O)N(C)[C@@H](C(CC)CC)C(=O)N(C)[C@H](C(=O)N(C)C)CC(=O)N1C [PP2462]
NRAS/KRAS (ratio of KD value with respect to NRAS to KD value with respect to KRAS) ([1]; GDP-bound NRAS wild-type vs GDP-bound KRAS wild-type): A (a compound having 10 or more and less than 20 is denoted as A)
HRAS/KRAS (ratio of KD value with respect to HRAS to KD value with respect to KRAS) ([2]; GDP-bound HRAS wild-type vs GDP-bound KRAS wild-type): A (a compound having 10 or more and less than 20 is denoted as A)

CC[C@H](C)[C@@H]1NC(=O)[C@H](CC(C)C)N(C)C(=O)C[C@@H](C(=O)N2CCOCC2)N(C)C(=O)[C@H](C2CCCC2)N(C)C(=O)C2(CCCC2)NC(=O)[C@@H]2CCCN2C(=O)[C@H](CCc2ccc(C(F)(F)F)c(Cl)c2)NC(=O)CN(CC)C(=O)[C@H](Cc2ccc(C)cc2)N(C)C(=O)[C@@H]2CCN2C(=O)[C@H](C)N(C)C1=O [PP0004] ([NMeL]I[NMeA][Aze][NMePhe(4-Me)][NEtG][hPhe(3-Cl-4-CF3)]P[Ac5c][NMeGly(cPent)][NMeD]-Morpholide; lactam N-11)
NRAS/KRAS (ratio of KD for GDP-bound NRAS wild-type to KD for KRAS) [1]: C (A compound having a KD ratio of 0.1 or more and less than 3 is denoted as C)
HRAS/KRAS (ratio of KD for GDP-bound HRAS wild-type to KD for KRAS) [2]: C (A compound having a KD ratio of 0.1 or more and less than 3 is denoted as C)

CC[C@H](C)[C@@H]1NC(=O)[C@H](CC)N(C)C(=O)C[C@@H](C(=O)N(C)C)N(C)C(=O)[C@H](C2CCCC2)N(C)C(=O)C2(CC(C)(C)C2)NC(=O)[C@@H]2C[C@@H](C)CN2C(=O)[C@H](CCc2ccc(C(F)(F)F)c(Cl)c2)NC(=O)CN(C)C(=O)[C@H](Cc2ccc(C)cc2)N2CC/C=C\C[C@@H](C2=O)N(C)C(=O)CN(C)C1=O [PP1846]
NRAS/KRAS (ratio of KD value for NRAS to KD value for KRAS) [1, 3]: A (a compound having 10 or more and less than 20 is denoted as A)
HRAS/KRAS (ratio of KD value for HRAS to KD value for KRAS) [2, 4]: B (a compound having 3 or more and less than 10 is denoted as B)

CC[C@H](C)[C@@H]1NC(=O)[C@H](CC(C)C)N(C)C(=O)C[C@@H](C(=O)N2CCOCC2)N(C)C(=O)[C@H](C2CCCC2)N(CC)C(=O)C2(CCCC2)NC(=O)[C@@H]2CCCN2C(=O)[C@H](CCc2cc(F)c(C(F)(F)F)c(F)c2)NC(=O)CN(C)C(=O)[C@H](Cc2ccc(C(F)(F)F)cc2)N2CCCC[C@@H](C2=O)N(C)C(=O)CN(C)C1=O [PP0538]
NRAS/KRAS (ratio of KD value with respect to GDP-bound NRAS wild-type protein to KD value with respect to KRAS) [1]: B (a compound having 3 or more and less than 10 is denoted as B)
HRAS/KRAS (ratio of KD value with respect to GDP-bound HRAS wild-type protein to KD value with respect to KRAS) [2]: B (a compound having 3 or more and less than 10 is denoted as B)

CCCN1C(=O)CN(C)C(=O)CN(C)C(=O)[C@H]([C@@H](C)CC)NC(=O)[C@H](CC(C)C)N(C)C(=O)C[C@@H](C(=O)N2CCOCC2)N(C)C(=O)[C@H](C2CCCC2)N(C)C(=O)[C@](C)(C(C)C)NC(=O)[C@@H]2CCCN2C(=O)[C@H](CCc2cc(F)c(C(F)(F)F)c(F)c2)NC(=O)CN(C)C(=O)[C@@H]1Cc1ccc(C(F)(F)F)cc1 [PP0756] ([NMeL]I[Sar][Sar][NPrPhe(4-CF3)][Sar][hPhe(3,5-F2-4-CF3)]P[αMeV][NMeGly(cPent)][NMeD]-Morpholide; lactam N-11)
NRAS/KRAS (ratio of KD value with respect to GDP-bound NRAS wild-type protein to KD value with respect to KRAS) [1]: B (a compound having 3 or more and less than 10 is denoted as B)
HRAS/KRAS (ratio of KD value with respect to GDP-bound HRAS wild-type protein to KD value with respect to KRAS) [2]: B (a compound having 3 or more and less than 10 is denoted as B)
